Measured values from patent US6841563B1, “Aryloxy propanolamines for improving livestock production” (Eli Lilly and Company, priority 1999, dated 2005).
Marks after values point to notes of the source that are not given here.

Experiments:
Type in all cases: in vivo
[1] = 28-day cattle study, orally administered Compound 6: growth and carcass measurements; conditions: for Feed efficiency / Yield grade (YG) / area of the longissimus dorsi muscle at the twelfth rib: oral, 28 days
Description: Thirty-two Angus crossbred steers were blocked by weight into a heavy (4 heaviest blocks, avg. initial BW=1226 lb. (557 kg)) and a light (4 lightest blocks, avg. initial BW=1164 lb. (528 kg)) replication. The steers within each block were assigned to one of four treatments (8 steers/treatment) to investigate the effects of orally administered Compound 6 on the growth and carcass measurements when fed to cattle for 28 days immediately prior to slaughter. The treatments included a CONTROL (0.0 mg Compound 6 per kg BW), and three levels of Compound 6 (LOW, 0.125 mg Compound 6 per kg BW; MED, 0.250 mg Compound 6 per kg BW; HIGH, 0.500 mg Compound 6 per kg BW). Compound 6 was mixed with ground corn and fed to the steers as a top dress on a portion of their daily feed. The CONTROL steers received a similar amount of a ground corn top dress. The steers were required to consume the initial feed and top dress before the remaining amount of feed was issued. The basal ration was a commercially available feed (19.3% CP, DM basis). Both feed and water were available ad libitum. The steers were individually housed in 12 ft×48 ft pens equipped with an individual feed bunk and automatic waterer. On day 28 the steers were weighed and a blood sample collected prior to being shipped for slaughter and subsequent carcass evaluation.

[2] = Intravenous administration to cattle: serum non-esterified fatty acid (NEFA) and serum urea nitrogen (SUN) levels
Description: Intravenous administration of the compounds of the present invention to cattle increases serum non-esterified fatty acids and decreases serum urea. In this Example, angus/angus cross calves, both heifers and steers, weighing approximately 282 pounds (128 kg) initially to 788 pounds (357.8 kg) over the course of these studies, were placed in pens at 5 calves per pen. The cattle were acclimated to the pens for at least 1 week prior to initiating the study.
Calves were fed ad libitum twice daily, (approximately 6-15 pounds (2.7-6.8 kg)/day). During the treatment day, in the A.M. period, the feeding times were staggered to ensure that all animals were fed approximately one hour before the treatments were administered. During the P.M. treatment period, the cattle were fed immediately after receiving the P.M. injection.
After taking a pretreatment (T=O) blood sample from each animal, a 40 μg per kilogram dose of a test compound was administered intravenously in the jugular vein at 6:30 A.M. and 2:30 P.M. Each test compound was administered at a concentration of 1.00-1.25 mg/ml in a treatment vehicle that was a 50/50 mixture of polyethylene glycol 200/water.
A blood sample was taken at fifteen minutes post-treatment (T+15 min). The calves were returned to their respective pens until their next treatment, approximately eight hours later. The next morning at 6:30 A.M. a blood sample was collected from all calves at 24 hours post-treatment (T+24 h). All blood samples were analyzed for the non-esterified fatty acid level (NEFA) and serum urea nitrogen level (SUN). The post-treatment NEFA and SUN levels in each individual animal were compared with the levels found before treatment.

[3] = Weight gain, feed efficiency and carcass characteristics, last 14 days of growing period in broiler chickens; conditions: for Dressing Percentage / Fat Pad Weight / Final Weight / Hot Carcass Weights / Pen Feed Intake / Total 14 day Weight Gain / Viscera Weight / Feed Efficiency F/G: day 35-49; for Feed Efficiency F/G: pen feed intake/total pen weight; for increase in weight gain over control / improvement of feed efficiency versus control: 14-day treatment period
Description: Approximately 1500 Peterson-Hubbard, day-old, male chicks were used in a randomized, complete-block design with 4 treatments (Control, Clenbuterol at 1 PPM, and Compound 6 at 3 and 15 PPM (mg/kg feed)). The testing facility contained 36 pens, divided equally into 6 blocks. Treatments were randomly allotted to pens within each block. Each treatment consisted of 6 pens with 10 birds per pen.
Day-of-age birds were obtained from Pine Manor Hatchery in Goshen, Ind. Approximately 40 birds per pen were set at random upon receipt. On day 30 of the growout period, all birds were weighed and the 15 birds closest to the block mean were selected. These birds were allowed to acclimate until day 35 of age. On that day, all remaining birds were weighed again, and the 10 birds/pen closest to the block mean were chosen for the treatment phase. Birds were provided ad libitum access to feed and water throughout the trial. All birds were fed a 23% crude protein corn-soy ration from day 1 until day 18 of age. The feed was changed to a 20% crude protein corn-soy ration from day 18 to day 49. The treatment feed was mixed using the same 20% crude protein basal ration. Treatments were administered in the feed from day 35 through day 49. Feed consumption was calculated over the entire 14-day treatment period. Birds were weighed at trial completion (day 49), and transported to Purdue University, West Lafayette, Ind. 47907, U.S.A. meat laboratory for slaughter and carcass measurements on day 50. Weights of the hot carcass, fat pad, and viscera were taken on all animals.

Compound: CC(C)(Cc1ccc(Oc2ncccc2C(N)=O)cc1)NC[C@H](O)COc1cccc2[nH]ccc12 [Compound 6, (S)-2-[4-[2-[2-Hydroxy-3-(1H-indol-4-yloxy)propylamino]-2-methylpropyl]-phenoxy]-3-pyridinecarboxamide]
- Conformation score ([1]; Compound 6 treatments vs CONTROL, P<0.005): higher
- Fat thickness at the twelfth rib ([1]; Compound 6 treatments vs CONTROL, P>0.78): not different
- Dressing percent ([1]; Compound 6 treatments vs CONTROL, F-test P=0.1138, Treatment P<0.05): to be higher
- Feed efficiency ([1]; HIGH, 0.500 mg per kg BW): 4.18 pound of feed per pound of gain
- Yield grade (YG) ([1]; HIGH, 0.500 mg per kg BW): 2.46
- area of the longissimus dorsi muscle at the twelfth rib ([1]; HIGH, 0.500 mg per kg BW): 14.5 in^2
- Feed efficiency ([1]; LOW, 0.125 mg per kg BW): 4.36 pound of feed per pound of gain
- area of the longissimus dorsi muscle at the twelfth rib ([1]; LOW, 0.125 mg per kg BW): 13.5 in^2
- Yield grade (YG) ([1]; LOW, 0.125 mg per kg BW, lower value = more saleable meat): 2.76
- Feed efficiency ([1]; MED, 0.250 mg per kg BW): 4.19 pound of feed per pound of gain
- Yield grade (YG) ([1]; MED, 0.250 mg per kg BW): 2.51
- area of the longissimus dorsi muscle at the twelfth rib ([1]; MED, 0.250 mg per kg BW): 14.3 in^2
- carcass composition (% fat, % protein, % moisture, % bone) ([1]; among the treatments, P>0.12, calculated by Hankins and Howe equations): did not differ statistically
- USDA quality grade and marbling scores ([1]; among the treatments, P>0.90): Neither the USDA quality grade nor marbling scores differed
- Daily dry matter intake ([1]; between the treatments (CONTROL, LOW, MED, HIGH), P>0.47): did not differ
- ΔNEFA 24 Hours ([2]; 40 μg per kilogram i.v. twice, T+24 h minus T=0, mean of five animals): -1.44 µmol/L
- ΔNEFA 15 Min. ([2]; 40 μg per kilogram i.v., T+15 min minus T=0, mean of five animals): 40.7 µmol/L
- change in vivo at 0.04 mg/kg ([2]; Bos taurus, iv, 40 μg per kilogram i.v. twice, 24 hours post treatment vs baseline T=0, mean of five animals, read-out: Δ% SUN 24 Hours): -47%
- lipolytic effects (non-esterified fatty acid levels) ([2]; fifteen minutes and twenty-four hours after administration): modest lipolytic effects
- anabolic effects (change in serum urea nitrogen levels) ([2]; twenty-four hours after administration, compared with the corresponding carboxamide regioisomers): significantly greater
- Dressing Percentage ([3]; 3 PPM in feed): 72.43*
- Fat Pad Weight ([3]; 3 PPM in feed): 28.67 g
- Final Weight ([3]; 3 PPM in feed): 3.02 kg
- Hot Carcass Weights ([3]; 3 PPM in feed): 2175.69* g
- Pen Feed Intake ([3]; 3 PPM in feed): 25.74 kg
- Total 14 day Weight Gain ([3]; 3 PPM in feed): 1.30 kg
- Viscera Weight ([3]; 3 PPM in feed): 283.04 g
- Feed Efficiency F/G ([3]; 3 PPM in feed): 1.95
- increase in weight gain over control ([3]; 3 PPM, P=0.0987): 3.17%
- improvement of feed efficiency versus control ([3]; 3 PPM, P=0.2936): 2.50%
- increase in hot carcass weights compared to control ([3]; 3 PPM, P=0.0174): 2.50%
- increase in fat pad weight ([3]; 3 PPM, P=0.1069): 9.68%
- decrease in viscera weights with respect to control ([3]; 3 PPM, P=0.3981): 1.50%
- Dressing Percentage ([3]; 15 PPM in feed): 72.63**
- Fat Pad Weight ([3]; 15 PPM in feed): 27.21 g
- Final Weight ([3]; 15 PPM in feed): 3.02 kg
- Hot Carcass Weights ([3]; 15 PPM in feed): 2182.55** g
- Pen Feed Intake ([3]; 15 PPM in feed): 25.25 kg
- Total 14 day Weight Gain ([3]; 15 PPM in feed): 1.30 kg
- Viscera Weight ([3]; 15 PPM in feed): 285.49 g
- Feed Efficiency F/G ([3]; 15 PPM in feed): 1.94
- increase in weight gain over control ([3]; 15 PPM, P=0.0756): 3.17%
- improvement of feed efficiency versus control ([3]; 15 PPM, P=0.1957): 3.00%
- increase in hot carcass weights compared to control ([3]; 15 PPM, P=0.0078): 2.82%
- increase in fat pad weight ([3]; 15 PPM, P=0.4814): 4.09%
- decrease in viscera weights with respect to control ([3]; 15 PPM, P=0.7279): 0.65%
